Assay results: the supplement of paper PMC10307832

compound: Cc1ccc(Nc2nccc(N(C)c3ccc4c(C)n(C)nc4c3)n2)cc1S(N)(=O)=O [Pazopanib] + N=C(N)NC(=N)NCCc1ccccc1 [Phenformin] (partner 250 µM); test: relative viability (nuclei count vs DMSO), 5 days (fraction); higher = more cells survive; details: first compound 1 µM
Summary of the method: (§1)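 Five library-drug doses in √10 steps were combined with a fixed anchor-drug dose, or a single drug was given alone, by pin tool to lung cancer cell lines in 1536-well plates the day after seeding. Nuclei were stained and counted after 5 days. Relative viability is the nuclei count in treated wells over that in vehicle wells, taken as the median of duplicate plates.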

Cell Line | relative viability
LC-2-ad | 0.685
NCI-H2170 | 0.388
NCI-H1975 | 0.502
SK-LU-1 | 0.575
ABC-1 | 0.269
SK-MES-1 | 0.688
NCI-H661 | 0.316
RERF-LC-KJ | 0.417

compound: Cc1ccc(C(=O)Nc2ccc(CN3CCN(C)CC3)c(C(F)(F)F)c2)cc1C#Cc1cnc2cccnn12 [Ponatinib] + CC(=O)c1c(C)c2cnc(Nc3ccc(N4CCNCC4)cn3)nc2n(C2CCCC2)c1=O [Palbociclib] (partner 0.5 µM); test: as above; details: first compound 0.002 µM
Summary of the method: as §1

Cell Line | relative viability
NCI-H1792 | 0.605
NCI-H1355 | 0.43
NCI-H322M | 0.524
NCI-H1437 | 0.285
NCI-H1755 | 0.419
NCI-H2023 | 0.447
HCC-15 | 0.675
NCI-H1944 | 0.331
EKVX | 0.382
LC-2-ad | 0.474
NCI-H2170 | 0.361
NCI-H1975 | 0.427
SK-LU-1 | 0.378
ABC-1 | 0.571
SK-MES-1 | 0.36
NCI-H661 | 0.412
RERF-LC-KJ | 1.11

same assay, conditions: first compound 0.006325 µM

Cell Line | relative viability
NCI-H1792 | 0.66
NCI-H1355 | 0.432
NCI-H322M | 0.501
NCI-H1437 | 0.318
NCI-H1755 | 0.44
NCI-H2023 | 0.456
HCC-15 | 0.752
NCI-H1944 | 0.392
PC-3 [JPC-3] | 0.576
EKVX | 0.419
LC-2-ad | 0.448
NCI-H2170 | 0.431
NCI-H1975 | 0.557
SK-LU-1 | 0.415
ABC-1 | 0.693
SK-MES-1 | 0.379
NCI-H661 | 0.412
RERF-LC-KJ | 1.22

same assay, conditions: first compound 0.06325 µM

Cell Line | relative viability
NCI-H1792 | 0.655
NCI-H1355 | 0.492
NCI-H322M | 0.501
NCI-H1437 | 0.316
NCI-H1755 | 0.413
NCI-H2023 | 0.402
HCC-15 | 0.798
NCI-H1944 | 0.435
PC-3 [JPC-3] | 0.608
EKVX | 0.458
LC-2-ad | 0.359
NCI-H2170 | 0.362
NCI-H1975 | 0.642
SK-LU-1 | 0.342
ABC-1 | 0.877
SK-MES-1 | 0.405
NCI-H661 | 0.434
RERF-LC-KJ | 1.27

same assay, conditions: first compound 0.2 µM

Cell Line | relative viability
NCI-H1792 | 0.62
NCI-H1355 | 0.439
NCI-H322M | 0.471
NCI-H1437 | 0.332
NCI-H1755 | 0.369
NCI-H2023 | 0.438
HCC-15 | 0.672
NCI-H1944 | 0.338
PC-3 [JPC-3] | 0.544
EKVX | 0.438
LC-2-ad | 0.347
NCI-H2170 | 0.377
NCI-H1975 | 0.537
SK-LU-1 | 0.353
ABC-1 | 0.646
SK-MES-1 | 0.327
NCI-H661 | 0.416
RERF-LC-KJ | 0.971

compound: Cc1ccc(C(=O)Nc2ccc(CN3CCN(C)CC3)c(C(F)(F)F)c2)cc1C#Cc1cnc2cccnn12 [Ponatinib] + COc1cccc2cc(-c3nc([C@H]4CC[C@H](C(=O)O)CC4)n4ncnc(N)c34)[nH]c12 [OSI-027] (partner 0.5 µM); test: as above; details: first compound 0.002 µM
Summary of the method: as §1

Cell Line | relative viability
NCI-H1792 | 0.621
NCI-H1355 | 0.409
NCI-H322M | 0.595
NCI-H1437 | 0.809
NCI-H1755 | 0.652
NCI-H2023 | 0.347
HCC-15 | 0.643
NCI-H1944 | 0.387
PC-3 [JPC-3] | 0.745
EKVX | 0.66
LC-2-ad | 0.673
NCI-H2170 | 0.698
NCI-H1975 | 0.602
SK-LU-1 | 0.334
ABC-1 | 0.394
SK-MES-1 | 0.566
NCI-H661 | 0.669
RERF-LC-KJ | 0.603

same assay, conditions: first compound 0.006325 µM

Cell Line | relative viability
NCI-H1792 | 0.747
NCI-H1355 | 0.48
NCI-H322M | 0.425
NCI-H1437 | 0.864
NCI-H1755 | 0.694
NCI-H2023 | 0.379
HCC-15 | 0.677
NCI-H1944 | 0.43
PC-3 [JPC-3] | 0.76
EKVX | 0.729
LC-2-ad | 0.732
NCI-H2170 | 0.724
NCI-H1975 | 0.575
SK-LU-1 | 0.345
ABC-1 | 0.513
SK-MES-1 | 0.653
NCI-H661 | 0.707
RERF-LC-KJ | 0.576

same assay, conditions: first compound 0.06325 µM

Cell Line | relative viability
NCI-H1792 | 0.841
NCI-H1355 | 0.43
NCI-H322M | 0.508
NCI-H1437 | 1.01
NCI-H1755 | 0.707
NCI-H2023 | 0.399
HCC-15 | 0.843
NCI-H1944 | 0.44
PC-3 [JPC-3] | 0.754
EKVX | 0.829
LC-2-ad | 0.775
NCI-H2170 | 0.749
NCI-H1975 | 0.47
SK-LU-1 | 0.344
ABC-1 | 0.47
SK-MES-1 | 0.717
NCI-H661 | 0.763
RERF-LC-KJ | 0.688

same assay, conditions: first compound 0.2 µM

Cell Line | relative viability
NCI-H1792 | 0.586
NCI-H1355 | 0.385
NCI-H322M | 0.425
NCI-H1437 | 0.75
NCI-H1755 | 0.595
NCI-H2023 | 0.267
HCC-15 | 0.599
NCI-H1944 | 0.394
PC-3 [JPC-3] | 0.69
EKVX | 0.706
LC-2-ad | 0.678
NCI-H2170 | 0.694
NCI-H1975 | 0.503
SK-LU-1 | 0.248
ABC-1 | 0.393
SK-MES-1 | 0.537
NCI-H661 | 0.666
RERF-LC-KJ | 0.522
